Data taken from paper PMC5600900 (Journal of medicinal chemistry, 2016).

What follows are compounds tested against WT-CXCL12 (Homo sapiens, UniProt P48061) (assay: 2D 1H-15N SOFAST-HMQC NMR titration, binding to WT-CXCL12). Conditions: 2D 1H-15N SOFAST-HMQC screen of docking hits.

Structure (SMILES) | binding to WT-CXCL12 (chemical shift perturbations)
O=C(O)CCn1cc(C(=O)c2ccccc2O)cc1-c1ccncc1 [compound 4] | bind non-specifically
COc1ccc(C2C(C(=O)O)CC(=O)N2Cc2ccsc2)cc1 (stereo not shown) [compound 5] | bind non-specifically
CC(C)O.CCCOc1ccc(C(Nc2ccc(F)cc2)P(=O)(O)O)cc1 (stereo not shown) [compound 6] | induced chemical shift perturbations to residues associated with the I4/I6 binding site
O=C(O)CC1c2ccccc2CCN1C(=O)Nc1cccc(F)c1 (stereo not shown) [compound 7] | induced chemical shift perturbations to residues associated with the I4/I6 binding site
